Test results as given in a melting point compilation (Tetko et al.; mined from patent text by program, amines drawn as free bases though some values may be those of a salt).

Compound | melting point
CCOC(=O)c1cnc(N2CCC[C@H]2CO)nc1NCc1ccc(OC)c(Cl)c1 | 88 to 90 °C
O=C(c1ccc(O)cc1)c1c(F)c(F)c(F)c(F)c1F | 138 to 140 °C
CC1(C)CCC(C)(C)c2cc(OCc3ccc(CC(N)=O)cc3)ccc21 | 202 to 205 °C
CC(C)CS(=O)c1ccc(N)c([N+](=O)[O-])c1 (stereo not given) | 111 to 118 °C
CC/C(=C\C=C\C(O)(C(F)(F)F)C(F)(F)F)c1ccc(COc2ccc(CO)c(CO)c2)s1 | 113 to 114 °C
Cc1nc2nc(C(=O)NO)cc(S)n2n1 | 178 to 179 °C
CCC(C)(O)CCC1C(C)(OC(C)=O)CCC2C(C)(C)CCCC21C (stereo not given) | 92 to 94 °C
N#Cc1nc2cc(Cl)c3cccnc3c2o1 | 214 to 215 °C
CCn1cc(C(=O)O)c(=O)c2cc(F)c(N3CCN(C)CC3)nc21 | 228 to 230 °C
CN1CC(CCCCN2CCN(c3ccccc3O)CC2)OC1=O (stereo not given) | 106 to 110 °C
O=C(c1cc(Cc2c[nH]cn2)ccc1O)N1CCCC1 | 96 to 98 °C
CCOC(=O)C(C)=Cc1ccc([N+](=O)[O-])cc1 | 75 °C
CC(C)(C)OC(=O)N1CCO[C@@H](c2ccc(C#N)cc2)C1 | 104 °C
Cc1c(-c2ccccc2)oc2c(CSCCCl)cccc2c1=O | 82 to 83 °C
CCCc1cc(NC(=S)N2CCN(c3cc(OC)cc(OC)c3)CC2)c(OC)nc1C | 143 to 144 °C
CCCOc1c2cc(F)c(F)cc2nc2c1c(C)nn2-c1ccccn1 | 162 to 163 °C
CC(=O)NC[C@H]1CN(c2ccc(C3=CCCCO3)c(F)c2)C(=O)O1 | 161 to 163 °C
Cc1cn(-c2ccc(N)cc2C(F)(F)F)cn1 | 141 to 143 °C
CCCCNC(=O)NS(=O)(=O)c1ccccc1S(=O)(=O)C(C)C | 164 to 166 °C
CCN1C(=O)C(C)(C)C(=O)N(C)c2cc(CN(CCn3ccc4oc(C)cc4c3=O)Cc3ccnnc3)ccc21 | 137 to 141 °C
CCOC(=O)CCCC1CCN(CCOC(c2ccccc2)c2ccc(Cl)cc2)CC1 (stereo not given) | 117 to 119 °C
COc1c(NC(=O)Nc2ccc(Oc3cc(C)nc(C)n3)c3ccccc23)cc(C(F)(F)F)cc1NS(C)(=O)=O | 212 to 213 °C
Cc1ccc(C2C3=C(CC(C)(C)CC3=O)NC3=C2C(=O)CC(C)(C)C3)cc1[N+](=O)[O-] | > 300 °C
NC(=O)c1ccc(Nc2nc(OCC3CCCCC3)c3nc[nH]c3n2)cc1 | 156 to 158 °C
COc1cc(COc2nn(CCO)cc2CO)ccc1OCc1nc(-c2ccco2)oc1C | 120 to 122 °C
CCc1c(N)cccc1NC(=O)OC(C)(C)C | 109 to 110 °C
CC(=O)N1N=C(c2ccc([N+](=O)[O-])c(C)c2)c2cc3c(cc2CC1C(N)=O)OCO3 (stereo not given) | 157 to 161 °C

Compound | melting point
O=C1SC(Cc2ccc(OCCON=Cc3ccc4ccccc4n3)cc2)C(=O)N1C(c1ccccc1)(c1ccccc1)c1ccccc1 (stereo not given) | 127 to 130 °C
Oc1ncnc2nc(C(F)(F)F)ccc12 | 268 to 269 °C
COc1cc(NC(=S)C2(C)CCc3c(C)c(O)c(C)c(C)c3O2)cc(OC)c1OC (stereo not given) | 147 to 148 °C
CCOC(=O)c1nc2ccc(Cl)nn2c1C | 170 to 171 °C
NCCOc1ncc(Cl)c(N)c1Cl | 115 to 116 °C
CCn1cc(C(=O)O)c(=O)c2cc(F)c(N3CCN(S(=O)(=O)c4ccc(OC)cc4)CC3)c(F)c21 | 252 to 253 °C
COc1cc(Cl)c(-n2nnc3c(-c4ccccc4C)nc(C)nc32)c(OC)c1 | 173 to 174 °C
COc1c(N2CCC(NC(=O)OC(C)(C)C)C2)c(F)cc2c(=O)c(C(=O)O)cn(C3CC3)c12 (stereo not given) | 224 to 226 °C
Clc1cccc(C2=CCN(Cc3ccccc3)CC2)n1 | 100 to 102 °C
O=C(O)C1=COc2c(C(=O)c3cccs3)cc(Cl)c(Cl)c2O1 | 233 to 236 °C
O=C(CC(F)=C(F)F)NNC(=O)CC(F)=C(F)F | 191 to 193 °C
COc1ccc(CN2C=CC=C3C2=Nc2cc(C(F)(F)F)ccc2S(=O)(=O)N3C)cc1 | 142 to 143 °C
CCOC(=O)c1c(C(F)(F)F)cc(C(F)(F)F)nc1N | 84 to 86 °C
CC12CCC3c4ccc(O)cc4CCC3C1CC(O)C2=C(F)F (stereo not given) | 225 to 227 °C
CC(C)NC(=O)Nc1ccc([N+](=O)[O-])cc1O | 160 to 161 °C
CCOC(=O)c1cn(NC=O)c2cc3c(cc2c1=O)OCO3 | 255 to 257 °C
CCOc1n[nH]c(=O)n1CC | 115 °C
CC(=O)CCc1c(C)c(OC(C)=O)c(C)c(C)c1OC(C)=O | 85 to 87.5 °C
CCCCCCCCCCCCCCOc1ccc(NCc2cccnc2)cc1 | 75 to 76 °C
CCOC(CNC(=N)NN1CCc2cc(Cl)ccc21)OCC | 163 to 165 °C
Cc1nn(-c2ccc(C#N)c(Cl)c2)c(C)c1Cc1ccc(C(=O)N2CC(O)C2)cc1 | 115 to 117 °C
CC(=O)NC(C)(C)c1ccc(CCl)cc1 | 101 to 103 °C
Cc1cc(C(=O)O)ccc1C(N)C(=O)O (stereo not given) | > 250 °C
CN1CCNC1=C[N+](=O)[O-] | 142 to 144 °C
Cn1c([N+](=O)[O-])cnc1C1=NO[C@@H]2CCCCCC[C@@H]12 (relative stereo) | 106 to 109 °C
Nc1nc2c(ncn2COCCCO)c(=O)[nH]1 | 223 °C

The next lines start with the values.

melting point | Compound
158 to 160 °C | CN1CC(NCc2ccccc2)=Nc2ccc(Cl)cc2C1=O
200 °C | O=c1cccc(-c2ccccc2)[nH]1
146 to 147 °C | CCOc1ccc(OCc2ccccc2OCc2nc(-c3ccccc3)oc2C)cc1CCC(=O)O
234 to 236 °C | Fc1cccc2c(Nc3ccncc3)noc12
214 to 216 °C | Cc1ccc(C2=C(c3ccc(S(C)(=O)=O)cc3)CN(C3CC3)C2=O)cc1
266 to 267 °C | CC(=O)c1ccc(-n2c(-c3sc(NC(=O)c4ccc(C)cc4)nc3-c3ccccc3)nc3ccccc3c2=O)cc1
170 to 172 °C | COc1ccc(-c2nc3n(c2-c2ccc(OC)cc2)Cc2ccccc2C3)cc1
125 to 128 °C | CNc1cc(CC(C)C)ccc1-c1ccccc1S(=O)(=O)Nc1onc(C)c1C
298 to 301 °C | COc1ccc2cc3c(c(-c4ccc(C)cc4)c2c1)C(=O)NC3=O
267 to 270 °C | O=C(N[C@@H](Cc1ccc(OCc2ccccc2)cc1)C(=O)O)c1cn2cc(/C=C/c3ccc(Cl)cc3)ccc2n1
126 to 127 °C | C=C1N(CCC)C(=O)OC12CCN(CC=C(c1ccccc1)c1ccccc1)CC2
230 to 232 °C | COc1ccc(CN2CCC(c3cn(Cc4ccoc4)c4ncccc34)CC2)cc1C(=O)O
209 to 210 °C | Cc1nc(N)nc(N)c1N1CCN(Cc2ccccc2)CC1
256 to 257 °C | O=C1NCCN1c1ccc(S(=O)(=O)Nc2ccc(C3CCCCC3)cc2)cc1
225 °C | Cc1c(C(=O)O)cnn1-c1ccc(I)cc1
137 to 140 °C | CCOCCn1cc(C2CCN(CCOc3ccccc3C(=O)O)CC2)c2cccnc21
73 to 77 °C | CCOC(=O)c1c(C2CC2)nn(CC)c1Cc1ccc(-c2ccccc2-c2nnn[nH]2)cc1
223 to 224 °C | O=C1C(Cc2ccccc2)NC(=S)N1c1nc2ccc(F)cc2s1 (stereo not given)
168 to 170 °C | Cc1ccc2c(c1)C(C(=O)O)c1cc(Br)ccc1CO2 (stereo not given)
138 to 140 °C | CC1(C)C(=O)Oc2ccc(C#N)cc21
101 to 103 °C | CSCC(=O)C(Cc1ccc2ccccc2c1)NC(=O)C(CC(C)C)NC(=O)OCc1ccccc1 (stereo not given)
60 to 67 °C | COC(=O)Cc1ccc(CNC(=O)C2Cc3ccccc3N2S(=O)(=O)c2ccc(-c3cccc(C(F)(F)F)c3)cc2)cc1C (stereo not given)
158 to 164 °C | O=C(O)CCC(=O)N1CCN2C(=O)OC(c3ccccc3)(c3ccccc3)C2C1 (stereo not given)
162 to 165 °C | O=C(Nc1ccc(-c2ccnc3c(C(=O)c4cccs4)cnn23)s1)c1ccccc1

melting point | Compound
171 to 173 °C | S=C(N=c1ccn(-c2ccccc2)nc1)Nc1ccccc1
207 to 210 °C | CNC(=O)c1ccccc1Nc1nc(Nc2ccc3c(c2)CCN(CC(C)(C)F)CC3)ncc1Cl
94 °C | CC(=O)Nc1ccc(OCCOCCO)cc1
135 °C | Cc1nc(-c2ccc(Cl)cc2)oc1CO
243 to 244 °C | COC(=O)c1ccc(-c2n[nH]c(-c3ccccc3)n2)cc1
92 to 93 °C | CCOC(=O)c1cc2c(C)cccc2n1CCNS(=O)(=O)c1ccc(C)cc1
108 to 109 °C | COc1ccc(C2CCCC(=O)N2c2ccc(OC)cc2)cc1 (stereo not given)
75.5 to 76.5 °C | CCCN(C(=O)n1ccnc1)c1ccccc1Cl
177 to 178 °C | COc1ccc2cc(C#N)ccc2c1Br
148 to 149 °C | C[C@@H](N1CCN(c2ccc(OC(F)(F)C(F)F)cc2)C1=O)[C@@]1(c2ccccc2F)CO1
104 to 105 °C | COC1OC(CO)C(OCc2ccccc2)C(O)C1OCc1ccccc1 (stereo not given)
133 °C | CNC1CCN(c2nc3ccccc3n2Cc2ccc(C#N)cc2)CC1
117 to 118 °C | CCN(CC)C(=O)c1cc(S(=O)(=O)Cc2ccccc2)c(N2CCC(c3ccccc3)CC2)cc1N(CC)CCN(C)C
178 to 182 °C | Cc1c(NC(=O)CC(C)(C)C)c(C)c2c(c1-c1ccccc1)OCC2c1ccc(C(C)C)cc1 (stereo not given)
240 to 246 °C | O=c1[nH]cnc2ccc(-c3cccnc3)cc12
94 to 96 °C | O=C1c2ccccc2CCc2cc(Br)ccc21
158 to 159 °C | CCCc1c(CCC(=O)O)cnn1Cc1ccc(OCc2nc(-c3ccccc3)oc2C)cc1
33 to 34 °C | ClCCCSc1nnnn1-c1ccccc1
158 °C | O=C1OC(=O)c2nc3ccc(OC(F)F)cc3cc21
197 to 198 °C | CC(=O)N[C@@H](CSC(c1ccccc1)(c1ccccc1)c1ccccc1)C(=O)N1CCSC1
180 °C | CCc1cccc(C)c1CNc1cc(CO)cn2nc(C)nc12
136 °C | O=C1N(c2ccccc2Br)Cc2cnc(Nc3ccccc3)nc2N1c1cccc(CO)c1
80 to 81 °C | CCc1c(-c2ccccc2)nn(C)c1-c1ccccc1
